Test results taken from patent US8013176B2, “Paricalcitol purification” (Alphora Research Inc., priority 2008, dated 2011).

Legend:
[1] = Accelerated storage stability studies, purity by HPLC; type: physicochemical
Description: Samples “a” were placed in glass bottles and sealed in a Marvel seal bag under an argon head space, all air having been removed. These were stored at a temperature of 40±2° C. and relative humidity of 75±2%. Samples “b” were similarly packaged and sealed under argon headspace, but stored at 25±2° C. and 60±5% relative humidity. Samples “c” were similarly packaged and sealed under argon headspace, but stored at 5±3° C. Samples “e”, comparative standards, were similarly packaged and sealed under argon headspace, but stored at −20±5° C.
Samples “d” and “f” were placed in glass bottles, but without a marvel seal bag, and stored under air headspace −20±5° C. (samples “d”) and 40±2° C. and relative humidity of 75±2% (samples “f”).
Samples stored at elevated or reduced temperatures were brought to room temperature just prior to sample preparation.
Purity determinations were conducted by High Performance Liquid Chromatography (HPLC), using a Waters Sunfire C18 HPLC Column, 250 by 4.6 mm, with a quaternary or binary HPLC pump, a variable wavelength or photo diode array UV/visible detector set to 252 nm, and an autosampler. Water (degassed) and acetonitrile (degassed) were used as the mobile phase. The column temperature was 25° C., the flow rate 2.0 mL/min with an injection volume of 100 μL and a run time of 60 minutes.

[2] = ICH test protocol storage stability; type: physicochemical; details: argon headspace, 6 months

C[C@H](/C=C/[C@H](C)C(C)(C)O)[C@H]1CC[C@H]2/C(=C/C=C3C[C@@H](O)C[C@H](O)C3)CCC[C@]12C [Paricalcitol, 1α,25-dihydroxy-19-nor-vitamin D2]
99.9%: purity after storage ([1]; samples a: argon headspace, 40±2° C., 75±2% relative humidity, 1 month) | purity after storage ([1]; samples a: argon headspace, 40±2° C., 75±2% relative humidity, 5 months) | purity after storage ([1]; samples b: argon headspace, 25±2° C., 60±5% relative humidity, 1 month) | purity after storage ([1]; samples c: argon headspace, 5±3° C., 1 month) | purity after storage ([1]; samples c: argon headspace, 5±3° C., 2 months) | purity after storage ([1]; samples c: argon headspace, 5±3° C., 5 months) | purity after storage ([1]; samples d: air headspace, −20±5° C., 1 month) | purity after storage ([1]; samples d: air headspace, −20±5° C., 5 months) | purity after storage ([1]; samples e: argon headspace, −20±5° C., 1 month) | purity after storage ([1]; samples e: argon headspace, −20±5° C., 2 months) | purity after storage ([1]; samples e: argon headspace, −20±5° C., 5 months) | purity after storage ([1]; samples f: air headspace, 40±2° C., 75±2% relative humidity, 1 month)
no reduction in purity: change in purity on storage ([1]; air headspace, 1 month, 40±2° C., 75%±2% relative humidity, paricalcitol of at least 99.9% purity) | change in purity on storage ([1]; argon headspace, 5 months, 40±2° C., 75±2% relative humidity) | change in purity on storage ([2]; 5±3° C.) | change in purity on storage ([2]; −20±5° C.)
99.8%: purity after storage ([1]; samples b: argon headspace, 25±2° C., 60±5% relative humidity, 5 months)
